The values that follow come from US20220144752A1, “WATER-SOLUBLE NAPHTHOQUINONE DERIVATIVE COMPOSITION AND METHOD FOR PRODUCING SAME, WATER-SOLUBLE COMPOSITION FOR CONTROLLING HARMFUL ALGAE, METHOD FOR CONTROLLING LARGE-SCALE HARMFUL ALGAE, AND AUTOMATION SYSTEM FOR AI-MONITORING, REMOVING, AND PREVENTING LARGE-SCALE HARMFUL ALGAE” (priority 2019, published 2022).

One series relates to microcystis. Briefly: Algal effect experiment (algal activity by cell counting). It is filed as cell-based, microcystis aeruginosa. The conditions noted are these: concentration of 1 μM or more. Here is the method: (§1) The harmful algae algal effect at various inoculation concentrations of the compounds according to an example of the present disclosure was measured. To this end, freshwater harmful algae as treated group include blue-green algae, cyanobacteria microcystis aeruginosa, dolichospermum circinale, aphanizomenon sp., and pseudoanabaena sp., diatoms, stephanodiscus hantzschii, and synedra sp., and green algae, scenedesmus sp., and seawater harmful algae includes trichodesmium sp., alexandrium tamarens, cochlodinium polykrikoides, prorocentrum minimum, and heterosigma akashiwo which are blue-green algae, and pseudo-nitzschia pungens fungens which is diatoms. […]
(§2) Reviewing the details of the experiment, in the case of freshwater species, 5 mL of each culture line was prepared so that the cell density was 5.0×10^3-9.0×10^4 cells/mL, and in the case of seawater species, was prepared so that the cell density was 1.0×10^2-1.0×10^4 cells/mL. […] Counting of the number of cells was performed through an SR-chamber or a hemocytometer under an upright or inverted microscope, and by counting the number of cells after 24 hours, 48 hours, and 72 hours, the reduction ratio of cells compared to before treatment, that is, algal activity (%) was calculated using the following [Equation 1]. […]
(§3) Based on the above [Formula 1], the algal activity of the compound was expressed as 60% or less, 60 to 80%, 80% or more. […]

For another series, the system named is dolichospermum. The description is as above. It is filed as cell-based, dolichospermum circinale. To be noted: concentration of 1 μM or more. The protocol:
as §1, §2, §3

For the next series, the system named is aphanizomenon. Described as above. It is filed as cell-based, aphanizomenon sp. To be noted: concentration of 2 μM or more. The protocol:
as §1, §2, §3

In series [1] the test system is cochlodinium polykrikoides. The description is as above. Format: cell-based. The conditions noted are these: concentration of 1 μM or more. The protocol: (§4) The harmful algae algal effect at various inoculation concentrations of the compounds according to an example of the present disclosure was measured. To this end, freshwater harmful algae as treated group include blue-green algae, cyanobacteria microcystis aeruginosa, dolichospermum circinale, aphanizomenon sp., and pseudoanabaena sp., diatoms, stephanodiscus hantzschii, and synedra sp., and green algae, scenedesmus sp., and seawater harmful algae includes trichodesmium sp., alexandrium tamarens, cochlodinium polykrikoides, prorocentrum minimum, and heterosigma akashiwo which are blue-green algae, and pseudo-nitzschia pungens fungens which is diatoms. The culture conditions are shown in [Table 1] below.
(§5) Reviewing the details of the experiment, in the case of freshwater species, 5 mL of each culture line was prepared so that the cell density was 5.0×10^3-9.0×10^4 cells/mL, and in the case of seawater species, was prepared so that the cell density was 1.0×10^2-1.0×10^4 cells/mL. After preparing each culture, the compounds specified as [Chemical Formula 1] prepared according to Examples were inoculated at various concentrations, and are treated so that the final concentrations were 1, 2, and 6 μM, respectively. Then, the compositions were cultured under the culture conditions of [Table 1], and cultured under continuous light conditions and observed for 72 hours. Counting of the number of cells was performed through an SR-chamber or a hemocytometer under an upright or inverted microscope, and by counting the number of cells after 24 hours, 48 hours, and 72 hours, the reduction ratio of cells compared to before treatment, that is, algal activity (%) was calculated using the following [Equation 1].
(§6) Algal activity (%)=(1−Tt/Ct)×100 [Equation 1]
(§7) In this case, in [Equation 1], T represents the density of cells after treating the compound, C represents the density of cells not treating the compound, and t represents the culture time.
(§8) Based on the above [Formula 1], the algal activity of the compound was expressed as 60% or less, 60 to 80%, 80% or more. When the algal activity reached 80% within 48 hours at any compound concentration, it was determined that there was an effect at a concentration higher than that and the high concentration experiment was stopped.

The next series relates to diatoms. The series is described as above. The conditions noted are these: 1, 2 and 6 μM, up to 72 hours. It is filed as cell-based. Here is the method:
as §4, §5, §6, §7, §8

The subject of the next series is green algae. The series is described as above. Format: cell-based. The conditions noted are these: 1, 2 and 6 μM, up to 72 hours. Here is the method: as §4, §5, §6, §7, §8
A further series deals with heterosigma akashiwo. The description is as above. The conditions noted are these: concentration of 2 μM or more. It is filed as cell-based. Here is the method: as §4, §5, §6, §7, §8
A further series concerns alexandrium tamarence. The description is as above. It is filed as cell-based, alexandrium tamarens. The conditions noted are these: concentration of 1 μM or more. The protocol:
as §1, §2, §3

In the next series the test system is akashiwo sanguinea. The description is as above. Format: cell-based. The conditions noted are these: concentration of 6 μM or more.
Another series has as its system Synedra. The series is described as above. The conditions noted are these: 1 μM, second day; cell growth observed again afterwards. It is filed as cell-based, synedra sp. Here is the method: as §1, §2, §3
A further series deals with Scenedesmus. Described as above. It is filed as cell-based, scenedesmus sp. The conditions noted are these: 1, 2 and 6 μM, up to 72 hours. Here is the method: as §1, §2, §3
Series [2] concerns luminescent bacteria (vibrio fischeri). Briefly: Ecotoxicity test, relative luminescence of luminescent bacteria. It is filed as cell-based. To be noted: for relative luminescence of the luminescent bacteria: supernatant of microcystis aeruginosa culture treated at 1 μM. The protocol: In order to investigate the effect of the compound according to an example of the present disclosure, that is, a composition according to [Chemical Formula 1] on the ecosystem, biotoxicity evaluation indicator organisms such as luminescent bacteria (vibrio fischeri) and daphnia (Daphnia magna) was used to evaluate the ecotoxicity.
First, in the case of the luminescent bacteria, an experiment was conducted according to the water pollution process test method, and as a sample for ecotoxicity evaluation, the compound specified in Example 1 was added to the blue-green algae, microcystis aeruginosa (10,488 cells/mL) at a concentration of 1 μM, and then, the supernatant was taken after 24 hours, 48 hours, and 72 hours and the luminescent bacteria were injected. Thereafter, the relative luminescence of the treated group compared to the control group was measured to confirm the luminescence reduction effect, and thus, the toxicity of each sample was evaluated.

Series [3] can be described thus: Biodegradability in on-site stream water (UHPLC-DAD). Format: physicochemical. To be noted: Jungnangcheon stream water, 6.5 μM input, 20° C. The protocol: An experiment was performed to evaluate the biodegradability in the water system of the compound of [Chemical Formula 1] according to the example of the present disclosure. First, on-site water from the Jungnangcheon stream in Seoul was collected and sprayed so that the concentration of the substance was 6.5 μM, and then acclimatized to a constant temperature condition of 20° C. The experimental volume was 350 mL, and samples were taken at intervals of 1-3 days, and 5 mL was taken per one time. This sample was filtered with a GF/F filter and stored frozen, and then melted at room temperature for analysis, filtered again with a 0.45 μm nylon filter, and then proceeded under the following analysis conditions. • Equipment: Agilent 1290 Infinity (UHPLC-DAD) • Column: Eclipse Puls-[…] (4.6 mm*100 mm*3.5 μm) • Column temperature: 40° C. • Mobile phase: Isocratic=>A: 0.1% phosphoric acid in D.W, B: ACN=70:30 • Analysis time: 7 min • Flow rate: 1.0 mL/min • Detector: DAD Detector (measurement waveform: 260 nm) • Injection volume: 1 μL

Series [4] can be described thus: Solubility in organic solvents. It is filed as physicochemical. An excerpt: Therefore, diethyl ether (Et2O) is recommended for washing.

Counter-ions that a name gives are not always drawn.

Regarding `CCN(CC)CCNC1=CC(=O)c2ccccc2C1=O` [Chemical Formula 1, 2-((2-(diethylamino)ethyl)amino)naphthalene-1,4-dione HCl], the “algal effect (killed)” value in the series on microcystis and in the series on dolichospermum was at least 90% each time. The same molecule displayed an algae effect with aphanizomenon of at least 80%. The algal effect result was “more than 90%” in series [1]; “insignificant” in the series with diatoms; “insignificant” with green algae; “more than 90%” in the series with heterosigma akashiwo; “more than 90%” in the series on alexandrium tamarence; “more than 80%” with akashiwo sanguinea. In addition, the results for the algal effect in the series on Synedra and with Scenedesmus were 70% and “hardly observed”, respectively. Further, the “relative luminance versus control group” value in series [2] (sample added at 1 μM) is “did not differ from that of the control group”. For the same molecule, the “relative luminescence of the luminescent bacteria” value in series [2] (after 24 hours), in series [2] (after 48 hours) and in series [2] (after 72 hours) was 100% in each case. In addition, the “concentration of the substance relative to the initial input concentration” value in series [3] (7th day) is given as 70%. In addition, in [3] (until the first 2 days), the “concentration of the substance” value is “maintained at the input concentration level”. The solubility result is on record as “slightly dissolved” in [4] (1,4-dioxane), “well dissolved” in series [4] (dimethyl sulfoxide (DMSO)) and “slightly dissolved” in series [4] (ethanol (EtOH)).
